Laboratory results published in PubChem BioAssay (NCI).
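Results reflect a 48-hour exposure of cells in 96-well plates to compound at five concentrations. The concentration for 50% growth inhibition is given as GI50. TGI denotes the concentration required for complete inhibition of growth.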

Experiments:
Experiment in all cases: NCI tumour cell line growth inhibition, 48 h
[1] = system: KM12 colon
[2] = system: HL-60(TB) leukemia
[3] = system: M14 melanoma
[4] = system: OVCAR-8 ovarian
[5] = system: SNB-19 CNS
[6] = system: TK-10 renal
[7] = system: CAKI-1 renal
[8] = system: IGROV1 ovarian
[9] = system: SNB-75 CNS
[10] = system: BT-549 breast

NC(CP(=O)(O)O)C(=O)O (stereo not given)
TGI [1]: > 100 µM | TGI [2]: > 100 µM | TGI [3]: > 100 µM | TGI [4]: > 100 µM | TGI [5]: > 100 µM | TGI [6]: > 100 µM | TGI [7]: > 100 µM | TGI [8]: > 100 µM | TGI [9]: > 100 µM | TGI [10]: > 100 µM

CCSc1nc(NC(C)c2ccccc2)c2cnn(CO)c2n1 (stereo not given)
GI50 [1]: 42.1 µM | TGI [1]: > 100 µM | GI50 [2]: > 100 µM | TGI [2]: > 100 µM | GI50 [3]: > 100 µM | TGI [3]: > 100 µM | GI50 [4]: 99.3 µM | TGI [4]: > 100 µM | GI50 [5]: > 100 µM | TGI [5]: > 100 µM | GI50 [6]: 47.7 µM | TGI [6]: > 100 µM | GI50 [7]: 0.135 µM | TGI [7]: 56.1 µM | GI50 [8]: > 100 µM | TGI [8]: > 100 µM | GI50 [9]: > 100 µM | TGI [9]: > 100 µM | GI50 [10]: 17.7 µM | TGI [10]: 64.1 µM

COc1ccc(/C(=C/c2ccc3ccccc3c2)c2nn[nH]n2)cc1OC
GI50 [1]: 2.79 µM | TGI [1]: > 100 µM | GI50 [2]: 2.56 µM | TGI [2]: 6.94 µM | GI50 [3]: 1.9 µM | TGI [3]: > 100 µM | GI50 [4]: 7.1 µM | TGI [4]: > 100 µM | GI50 [5]: 7.84 µM | TGI [5]: > 100 µM | GI50 [6]: 18.5 µM | TGI [6]: > 100 µM | GI50 [7]: 2.24 µM | TGI [7]: > 100 µM | GI50 [8]: 4.23 µM | TGI [8]: > 100 µM | GI50 [9]: 2.51 µM | TGI [9]: > 100 µM | GI50 [10]: 10.9 µM | TGI [10]: > 100 µM

COc1ccc(C2=NN(C=O)C(c3ccc(OS(=O)(=O)c4ccc(C)cc4)c(OC)c3)C2)cc1 (stereo not given)
GI50 [1]: 9.23 µM | TGI [1]: > 100 µM | GI50 [2]: 2.56 µM | TGI [2]: > 100 µM | GI50 [3]: 3.92 µM | TGI [3]: > 100 µM | GI50 [4]: 10.2 µM | TGI [4]: > 100 µM | GI50 [5]: 11.7 µM | TGI [5]: > 100 µM | GI50 [6]: > 100 µM | TGI [6]: > 100 µM | GI50 [7]: 5.35 µM | TGI [7]: > 100 µM | GI50 [8]: 18.8 µM | TGI [8]: > 100 µM | GI50 [9]: 3.33 µM | TGI [9]: 25.1 µM | GI50 [10]: 3.35 µM | TGI [10]: 58.1 µM
